Article PMC11549994, “A dTDP-L-rhamnose 4-epimerase required for glycopeptidolipid biosynthesis in Mycobacterium abscessus” (The Journal of Biological Chemistry, 2024)
Read-outs that look alike come from different tables or passages of the source.

Columns and labels:
[1] = system: T1, M. abscessus CIP104536T (R); experiment: microbe, parasite or virus in culture; design: species or system Mycobacteroides abscessus CIP104536T; antibiotic susceptibility testing, MIC of drugs against M. abscessus strains; conditions: Mycobacteroides abscessus, read-out: MIC (µg/mL) (phenotypea) / R
T1 construct: CIP104536T rough (R) morphotype
Method: (§1) M. abscessus CIP104536^T (S) and CIP104536^T (R) strains used in this study were previously sequenced and their genomic differences identified and characterized ([13], [60]). Mycobacteria were grown in Middlebrook 7H9 broth (BD) supplemented with 0.025% tyloxapol and 10% oleic acid-albumin-dextrose-catalase (OADC) enrichment (7H9^OADC) or on Middlebrook 7H10 agar (BD) containing 10% OADC (7H10^OADC) at 37 °C, with antibiotics when required. A Bio-Rad Gene pulser (25 μF, 2500 V, 800 Ω) was used to transform electrocompetent mycobacteria. After transformation, strains carrying the pMV306 ([48]) derivatives were selected on 250 μg/ml kanamycin.

[2] = system: T2, M. abscessus CIP104536T (S); experiment: microbe, parasite or virus in culture; design: species or system Mycobacteroides abscessus CIP104536T; antibiotic susceptibility testing, MIC of drugs against M. abscessus strains; conditions: Mycobacteroides abscessus, read-out: MIC (µg/mL) (phenotypea) / S
T2 construct: CIP104536T smooth (S) morphotype
Method: as §1

[3] = biological target: T3, MAB_4111c (Tle) (Mycobacteroides abscessus, UniProt B1MIG3); experiment: reverse reaction, formation of dTDP-Rha (data not shown); type: biochemical; conditions: 60 min, also the product of the forward reaction, partially purified Ni-bead fraction
T3 construct: full-length, 353 residues, six-histidine tag from pET30 (kept), expressed in E. coli BL21 Star DE3; partially purified Ni-bead-enriched fraction
T3 sequence (B1MIG3 entry or part of it): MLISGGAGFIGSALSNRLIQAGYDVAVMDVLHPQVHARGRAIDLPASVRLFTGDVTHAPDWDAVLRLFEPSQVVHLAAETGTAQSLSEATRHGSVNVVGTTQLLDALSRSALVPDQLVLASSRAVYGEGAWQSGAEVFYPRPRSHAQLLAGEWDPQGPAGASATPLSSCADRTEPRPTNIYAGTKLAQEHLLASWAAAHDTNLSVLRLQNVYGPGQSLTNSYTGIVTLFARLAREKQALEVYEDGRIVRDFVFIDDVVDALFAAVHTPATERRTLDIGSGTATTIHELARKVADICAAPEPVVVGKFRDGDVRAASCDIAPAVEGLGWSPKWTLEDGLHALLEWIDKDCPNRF

[4] = system: T2, M. abscessus CIP104536T (S); experiment: microbe, parasite or virus in culture; design: species or system Mycobacteroides abscessus CIP104536T; antibiotic susceptibility testing, MIC of drugs against M. abscessus strains; conditions: Mycobacteroides abscessus, read-out: MIC (µg/mL) (phenotypea) / S; remark: listed apart in the source
Method: as §1

[5] = system: T1, M. abscessus CIP104536T (R); experiment: microbe, parasite or virus in culture; design: species or system Mycobacteroides abscessus CIP104536T; antibiotic susceptibility testing, MIC of drugs against M. abscessus strains; conditions: Mycobacteroides abscessus, read-out: MIC (µg/mL) (phenotypea) / R; remark: listed apart in the source
Method: as §1

Compound | MIC [1] [µg/mL] | MIC [2] [µg/mL] | reverse reaction, formation of dTDP-Rha (data not shown) [3] | MIC [4] [µg/mL] | MIC [5] [µg/mL]
CO/N=C(\C(=O)N[C@@H]1C(=O)N2C(C(=O)[O-])=C(C[N+]3(C)CCCC3)CS[C@H]12)c1csc(N)n1 [Cefepime] | > 32 | > 32 | – | – | –
C[C@@H](O)[C@H]1C(=O)N2C(C(=O)O)=C(SCCNC=N)C[C@H]12 [Imipenem] | 64 | 64 | – | – | –
CN(C)c1ccc(O)c2c1C[C@H]1C[C@H]3[C@H](N(C)C)C(O)=C(C(N)=O)C(=O)[C@@]3(O)C(O)=C1C2=O [Minocycline] | > 8 | > 8 | – | – | –
CO/N=C(\C(=O)N[C@@H]1C(=O)N2C(C(=O)O)=C(CSc3nc(=O)c(O)nn3C)CS[C@H]12)c1csc(N)n1 [Ceftriaxone] | > 64 | > 64 | – | – | –
Cc1cn([C@H]2C[C@H](O)[C@@H](COP(=O)(O)OP(=O)(O)O[C@H]3O[C@@H](C)[C@@H](O)[C@@H](O)[C@H]3O)O2)c(=O)[nH]c1=O [dTDP-6-d-Tal] | – | – | reverse reaction using dTDP-6-d-Tal as a substrate and observed the formation of dTDP-Rha | – | –
NCC[C@H](O)C(=O)N[C@@H]1C[C@H](N)[C@@H](O[C@H]2O[C@H](CN)[C@@H](O)[C@H](O)[C@H]2O)[C@H](O)[C@H]1O[C@H]1O[C@H](CO)[C@@H](O)[C@H](N)[C@H]1O [Amikacin] | 32 | 16 | – | – | –
NC[C@H]1O[C@H](O[C@H]2[C@H](O)[C@@H](O[C@H]3O[C@H](CO)[C@@H](O)[C@H](N)[C@H]3O)[C@H](N)C[C@@H]2N)[C@H](N)C[C@@H]1O [Tobramycin] | 16 | 16 | – | – | –
CN(C)c1cc(NC(=O)CNC(C)(C)C)c(O)c2c1C[C@H]1C[C@H]3[C@H](N(C)C)C(O)=C(C(N)=O)C(=O)[C@@]3(O)C(O)=C1C2=O [Tigecycline] | 1 | 0.5 | – | – | –
CC(=O)NC[C@H]1CN(c2ccc(N3CCOCC3)c(F)c2)C(=O)O1 [Linezolid] | 32 | 32 | – | – | –
CC[C@H]1OC(=O)[C@H](C)[C@@H](O[C@H]2C[C@@](C)(OC)[C@@H](O)[C@H](C)O2)[C@H](C)[C@@H](O[C@@H]2O[C@H](C)C[C@H](N(C)C)[C@H]2O)[C@](C)(OC)C[C@@H](C)C(=O)[C@H](C)[C@@H](O)[C@]1(C)O [Clarithromycin] | 4 | 8 | – | > 16 | > 16
COc1c(N2C[C@@H]3CCCN[C@@H]3C2)c(F)cc2c(=O)c(C(=O)O)cn(C3CC3)c12 [Moxifloxacin] | > 8 | > 8 | – | – | –
CO[C@@]1(NC(=O)Cc2cccs2)C(=O)N2C(C(=O)O)=C(COC(N)=O)CS[C@@H]21 [Cefoxitin] | 128 | 64 | – | – | –
C[C@H]1c2cccc(O)c2C(=O)C2=C(O)[C@]3(O)C(=O)C(C(N)=O)=C(O)[C@@H](N(C)C)[C@@H]3[C@@H](O)[C@@H]21 [Doxycycline] | > 16 | > 16 | – | – | –
CO[C@H]1/C=C/O[C@@]2(C)Oc3c(C)c(O)c4c(c3C2=O)C2=NC3(CCN(CC(C)C)CC3)NC2=C(NC(=O)/C(C)=C\C=C\[C@H](C)[C@H](O)[C@@H](C)[C@@H](O)[C@@H](C)[C@H](OC(C)=O)[C@@H]1C)C4=O [Rifabutin] | 16 | 64 | – | – | –
